{"source": "patent US20070184481A1", "about": "“Assay For Transcriptionally Active Methylated Promoters” (UNIVERSITY OF SOUTH FLORIDA, priority 2005, published 2007)", "tested_on": "HLA-DRA mRNA in RFX-negative cell lines", "settings": "two RFX-negative suspension B-cell lines, 5 uM Azacytidine for 72 hours, RT-PCR 40 cycles, agarose gel detection", "experimental": "Suspension B-cell lines were seeded at 10^5 cells per ml in 20 ml volume of media. […] Total RNA was prepared as described, and 5 ug of RNA were used in a standard reverse transcriptase, polymerase chain reaction (RT-PCR) for HLA-DRA mRNA and for γ-actin mRNA. PCR was performed for 40 cycles and the PCR products detected by 2.2% agarose gel electrophoresis."}
{"smiles": "Nc1ncn([C@@H]2O[C@H](CO)[C@@H](O)[C@H]2O)c(=O)n1", "note": "[AzaC, Azacytidine]", "values": [{"measurement": "HLA-DRA mRNA production compared to untreated cells", "value": "increase in HLA-DRA mRNA production"}]}
